# Results from patent US10597388B2, “Pyridazinone herbicides” (FMC CORPORATION, priority 2014, dated 2020).
# What was measured:
# Assay in all cases: Test D controlled growth environment herbicide test, pre- and postemergence
# Format in all cases: in vivo
# [1] = system: barley, spring (spring barley, Hordeum vulgare)
# Method in brief: (§1)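 Species sown in silt loam and sprayed preemergence, or grown in peat-based medium to 2–18 cm (1- to 4-leaf stage) and sprayed postemergence, with compounds in non-phytotoxic solvent plus surfactant. Visual injury scored versus controls after 14–21 d in a controlled environment, 0 (no effect) to 100 (complete control).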
# [2] = system: barley, winter (winter barley, Hordeum vulgare)
# Method in brief: as §1
# [3] = system: blackgrass (Alopecurus myosuroides)
# Method in brief: as §1
# [4] = system: bromegrass, downy (downy bromegrass, Bromus tectorum)
# Method in brief: as §1
# [5] = system: chamomile (scentless chamomile, Matricaria inodora)
# Method in brief: as §1
# [6] = system: chickweed (common chickweed, Stellaria media)
# Method in brief: as §1
# [7] = system: deadnettle (henbit deadnettle, Lamium amplexicaule)
# Method in brief: as §1
# [8] = system: field poppy (Papaver rhoeas)
# Method in brief: as §1
# [9] = system: foxtail, green (green foxtail, Setaria viridis)
# Method in brief: as §1
# [10] = system: lambsquarters (Chenopodium album)
# Method in brief: as §1
# [11] = system: ryegrass, Italian (Italian ryegrass, Lolium multiflorum)
# Method in brief: as §1
# [12] = system: wheat, spring (spring wheat, Triticum aestivum)
# Method in brief: as §1
# [13] = system: wheat, winter (winter wheat, Triticum aestivum)
# Method in brief: as §1
# [14] = Postemergence, 31 g ai/ha, scale 0 to 100 (0 no effect, 100 complete control)
# [15] = Postemergence, 125 g ai/ha, visual rating on scale 0 (no effect) to 100 (complete control), 14 to 21 d
# [16] = Postemergence, 250 g ai/ha, scale 0 to 100 (0 no effect, 100 complete control)
# [17] = Preemergence, 62 g ai/ha, scale 0 to 100 (0 no effect, 100 complete control)
# [18] = Preemergence, 125 g ai/ha, scale 0 to 100 (0 no effect, 100 complete control)
# [19] = Preemergence, 250 g ai/ha, scale 0 to 100 (0 no effect, 100 complete control)
# [20] = postemergence, 62 g ai/ha, scale 0 to 100, 0 no effect, 100 complete control
smiles,measurement,setting,value
CC(=O)Oc1c(Br)nn(C)c(=O)c1-c1c(C)ccc2ccccc12 [Compound 129],"Barley, Spring plant response rating",[1]; [14],20
same,"Plant response rating, Barley, Spring",[1]; [15],30
same,"Plant response rating, Barley, Spring",[1]; [16],30
same,"Plant response rating (scale of 0 to 100), Barley, Spring","[1]; Preemergence, 31 g ai/ha",0
same,"Plant response rating, Barley, Spring",[1]; [17],0
same,"Plant response rating, Barley, Spring",[1]; [18],0
same,"Plant response rating, Barley, Spring",[1]; [19],20
same,"Plant response rating, Barley, Spring",[1]; [20],25
same,"Barley, Winter plant response rating",[2]; [14],10
same,"Plant response rating, Barley, Winter",[2]; [15],30
same,"Plant response rating, Barley, Winter",[2]; [16],35
same,"Plant response rating (scale of 0 to 100), Barley, Winter","[2]; Preemergence, 31 g ai/ha",0
same,"Plant response rating, Barley, Winter",[2]; [17],0
same,"Plant response rating, Barley, Winter",[2]; [18],0
same,"Plant response rating, Barley, Winter",[2]; [19],10
same,"Plant response rating, Barley, Winter",[2]; [20],20
same,Blackgrass plant response rating,[3]; [14],35
same,"Plant response rating, Blackgrass",[3]; [15],60
same,"Plant response rating, Blackgrass",[3]; [16],75
same,"Plant response rating (scale of 0 to 100), Blackgrass","[3]; Preemergence, 31 g ai/ha",10
same,"Plant response rating, Blackgrass",[3]; [17],15
same,"Plant response rating, Blackgrass",[3]; [18],55
same,"Plant response rating, Blackgrass",[3]; [19],75
same,"Plant response rating, Blackgrass",[3]; [20],45
same,"Bromegrass, Downy plant response rating",[4]; [14],25
same,"Plant response rating, Bromegrass, Downy",[4]; [15],65
same,"Plant response rating, Bromegrass, Downy",[4]; [16],80
same,"Plant response rating (scale of 0 to 100), Bromegrass, Downy","[4]; Preemergence, 31 g ai/ha",15
same,"Plant response rating, Bromegrass, Downy",[4]; [17],15
same,"Plant response rating, Bromegrass, Downy",[4]; [18],65
same,"Plant response rating, Bromegrass, Downy",[4]; [19],80
same,"Plant response rating, Bromegrass, Downy",[4]; [20],40
same,Chamomile plant response rating,[5]; [14],100
same,"Plant response rating, Chamomile",[5]; [15],100
same,"Plant response rating, Chamomile",[5]; [16],100
same,"Plant response rating (scale of 0 to 100), Chamomile","[5]; Preemergence, 31 g ai/ha",100
same,"Plant response rating (scale of 0 to 100), Chamomile","[5]; Preemergence, 62 g ai/ha",100
same,"Plant response rating, Chamomile",[5]; [18],100
same,"Plant response rating, Chamomile",[5]; [19],100
same,"Plant response rating, Chamomile",[5]; [20],98
same,Chickweed plant response rating,[6]; [14],100
same,"Plant response rating, Chickweed",[6]; [15],100
same,"Plant response rating, Chickweed",[6]; [16],100
same,"Plant response rating (scale of 0 to 100), Chickweed","[6]; Preemergence, 31 g ai/ha",98
same,"Plant response rating (scale of 0 to 100), Chickweed","[6]; Preemergence, 62 g ai/ha",100
same,"Plant response rating, Chickweed",[6]; [18],98
same,"Plant response rating, Chickweed",[6]; [19],100
same,"Plant response rating, Chickweed",[6]; [20],100
same,Deadnettle plant response rating,[7]; [14],35
same,"Plant response rating, Deadnettle",[7]; [15],70
same,"Plant response rating, Deadnettle",[7]; [16],95
same,"Plant response rating (scale of 0 to 100), Deadnettle","[7]; Preemergence, 31 g ai/ha",60
same,"Plant response rating (scale of 0 to 100), Deadnettle","[7]; Preemergence, 62 g ai/ha",75
same,"Plant response rating, Deadnettle",[7]; [18],75
same,"Plant response rating, Deadnettle",[7]; [19],95
same,"Plant response rating, Deadnettle",[7]; [20],40
same,Field Poppy plant response rating,[8]; [14],70
same,"Plant response rating, Field Poppy",[8]; [15],80
same,"Plant response rating, Field Poppy",[8]; [16],98
same,"Plant response rating (scale of 0 to 100), Field Poppy","[8]; Preemergence, 31 g ai/ha",90
same,"Plant response rating (scale of 0 to 100), Field Poppy","[8]; Preemergence, 62 g ai/ha",98
same,"Plant response rating, Field Poppy",[8]; [18],100
same,"Plant response rating, Field Poppy",[8]; [19],100
same,"Plant response rating, Field Poppy",[8]; [20],75
same,"Foxtail, Green plant response rating",[9]; [14],80
same,"Plant response rating, Foxtail, Green",[9]; [15],85
same,"Plant response rating, Foxtail, Green",[9]; [16],95
same,"Plant response rating (scale of 0 to 100), Foxtail, Green","[9]; Preemergence, 31 g ai/ha",35
same,"Plant response rating (scale of 0 to 100), Foxtail, Green","[9]; Preemergence, 62 g ai/ha",70
same,"Plant response rating, Foxtail, Green",[9]; [18],80
same,"Plant response rating, Foxtail, Green",[9]; [19],95
same,"Plant response rating, Foxtail, Green",[9]; [20],80
same,Lambsquarters plant response rating,[10]; [14],75
same,"Plant response rating, Lambsquarters",[10]; [15],95
same,"Plant response rating, Lambsquarters",[10]; [16],100
same,"Plant response rating (scale of 0 to 100), Lambsquarters","[10]; Preemergence, 31 g ai/ha",100
same,"Plant response rating (scale of 0 to 100), Lambsquarters","[10]; Preemergence, 62 g ai/ha",75
same,"Plant response rating, Lambsquarters",[10]; [18],100
same,"Plant response rating, Lambsquarters",[10]; [19],100
same,"Plant response rating, Lambsquarters",[10]; [20],90
same,"Ryegrass, Italian plant response rating",[11]; [14],80
same,"Plant response rating, Ryegrass, Italian",[11]; [15],90
same,"Plant response rating, Ryegrass, Italian",[11]; [16],90
same,"Plant response rating (scale of 0 to 100), Ryegrass, Italian","[11]; Preemergence, 31 g ai/ha",70
same,"Plant response rating (scale of 0 to 100), Ryegrass, Italian","[11]; Preemergence, 62 g ai/ha",80
same,"Plant response rating, Ryegrass, Italian",[11]; [18],98
same,"Plant response rating, Ryegrass, Italian",[11]; [19],100
same,"Plant response rating, Ryegrass, Italian",[11]; [20],85
same,"Wheat, Spring plant response rating",[12]; [14],25
same,"Plant response rating, Wheat, Spring",[12]; [15],50
same,"Plant response rating, Wheat, Spring",[12]; [16],70
same,"Plant response rating (scale of 0 to 100), Wheat, Spring","[12]; Preemergence, 31 g ai/ha",25
same,"Plant response rating (scale of 0 to 100), Wheat, Spring","[12]; Preemergence, 62 g ai/ha",50
same,"Plant response rating, Wheat, Spring",[12]; [18],60
same,"Plant response rating, Wheat, Spring",[12]; [19],75
same,"Plant response rating, Wheat, Spring",[12]; [20],35
same,"Wheat, Winter plant response rating",[13]; [14],30
same,"Plant response rating, Wheat, Winter",[13]; [15],40
same,"Plant response rating, Wheat, Winter",[13]; [16],55
same,"Plant response rating (scale of 0 to 100), Wheat, Winter","[13]; Preemergence, 31 g ai/ha",10
same,"Plant response rating (scale of 0 to 100), Wheat, Winter","[13]; Preemergence, 62 g ai/ha",35
same,"Plant response rating, Wheat, Winter",[13]; [18],45
same,"Plant response rating, Wheat, Winter",[13]; [19],60
same,"Plant response rating, Wheat, Winter",[13]; [20],35
